Results: patent publication US4302541A, “Process of producing optically active cephalosporin analogs by enzyme selective deacylation” (Kyowa Hakko Kogyo Co., Ltd., priority 1979, dated 1981)
Converted amounts (≈) assume the structure as drawn. Like-named read-outs stand apart in the source and are kept apart here.

Columns and labels:
Test in all cases: Heart Infusion Agar Dilution Method (MIC)
Format in all cases: cell-based
[1] = test system: Escherichia coli Juhl; conditions: pH 7.2
[2] = test system: Staphylococcus aureus 209-P; conditions: pH 7.2
[3] = test system: Escherichia coli NIHJC-2; conditions: NIHJC2, pH 7.2
[4] = test system: Proteus mirabilis 1287
[5] = test system: Serratia marcescens T-26; conditions: T26, pH 7.2
[6] = test system: Klebsiella pneumoniae 8045; conditions: pH 7.2
[7] = test system: Klebsiella pneumoniae Y-60; conditions: Y60, pH 7.2
[8] = test system: Staphylococcus epidermidis; conditions: pH 7.2
[9] = test system: Serratia marcescens T-55; conditions: T55, pH 7.2
[10] = Staphylococcus aureus 209-P, Heart Infusion Agar Dilution Method, read-out: MIC

Row | MIC ([4]; Proteus mirabilis 1287, Heart Infusion Agar Dilution Method, pH 7.2, read-out: MIC) [µg/mL] | MIC [5] [µg/mL] | MIC [6] [µg/mL] | SMILES | MIC [1] [µg/mL] | MIC [2, 10] [µg/mL] | MIC [3] [µg/mL] | MIC ([4]; Proteus mirabilis, 1287, pH 7.2) [µg/mL] | MIC [7] [µg/mL] | MIC [8] [µg/mL] | MIC ([2]; Staphylococcus aureus, 209P) [µg/mL] | MIC [9] [µg/mL]
1 | – | – | – | Cc1nnc(SCC2=C(C(=O)O)N3C(=O)[C@@H](NC(=O)Cn4cnnn4)[C@H]3SC2)s1 [Cefazolin] | 1.56 (≈ 3.43 µM) | ≤ 0.05 | 1.56 (≈ 3.43 µM) | – | – | – | – | –
2 | 3.12 (≈ 8.92 µM) | > 100 | 0.2 (≈ 0.572 µM) | N[C@@H](C(=O)N[C@@H]1C(=O)N2C(C(=O)O)=C(Cl)CC[C@H]12)c1ccccc1 [Reference Example 2, (6R, 7S) 7-(R)-2-phenylglycinamido3-chloro-1-azabicyclo[4,2,0]oct-2-en-8-on-2-carboxylic acid] | – | 0.1 (≈ 0.286 µM) | – | – | – | – | – | –
3 | – | – | – | CC1=C(C(=O)O)N2C(=O)[C@@H](NC(=O)[C@H](N)c3ccccc3)[C@H]2SC1 [Cephalexin] | 12.5 (≈ 36 µM) | – | 12.5 (≈ 36 µM) | 25 (≈ 72 µM) | 50 (≈ 144 µM) | 3.12 (≈ 8.98 µM) | 0.2 (≈ 0.576 µM) | 50 (≈ 144 µM)
